Each structure is given as a SMILES string. Read-outs that look alike come from different tables or passages of the source.

Data on two molecules can be found in patent publication US11945807B2, “Splicing modulator antibody-drug conjugates and methods of use” (EISAI R&D MANAGEMENT CO., LTD., priority 2018, dated 2024).

In one data set the test system is Ad2.1 pre-mRNA. The data set is described as follows: In vitro splicing (IVS) RT-qPCR, HeLa nuclear extract, Ad2.1. It is filed as biochemical. As to the method:
(§1) To evaluate payload activity in a cell-free system, an in vitro splicing assay was performed. The payloads were incubated with nuclear extracts and pre-mRNA substrate minigenes.
(§2) HeLa nuclear extract preparation: HeLa S3 cell pellets were resuspended in hypotonic buffer (10 mM HEPES pH 7.9, 1.5 mM MgCl2, 10 mM KCl, 0.2 mM PMSF, 0.5 mM DTT) and the suspension was brought up to a total of 5 packed cell volume (PCV). After centrifugation, the supernatant was discarded, and the cells were brought up to 3 PCV with hypotonic buffer and incubated on ice for 10 min. Cells were lysed using a dounce homogenizer and then centrifuged. […]. The nuclei were gently mixed for 30 min before centrifuging. The supernatant (nuclear extract) was then dialyzed into storage buffer (20 mM HEPES pH 7.9, 100 mM KCl, 0.2 mM EDTA, 20% glycerol, 0.2 mM PMSF, 0.5 mM DTT). Protein concentration was determined using NanoDrop 8000 UV-Vis spectrophotometer (ThermoFisher Scientific).
IVS: All Ad2-derived sequences (Pellizzoni et al. (1998) Cell 95(5):615-24) were cloned into pcDNA3.1(+) vector (Promega) using 5′ EcoRI and 3′ Xbal restriction sites. The plasmids were linearized using Xbal and used as DNA templates in in vitro transcription reactions. The FtzΔi intron-less plasmid (Luo and Reed (1999) 96(26):14937-42) was linearized using EcoRI. All RNAs were in vitro transcribed and then purified using MEGAScript T7 (Invitrogen) and MegaClear (Invitrogen) kits, respectively. For splicing reactions using Ad2 variant pre-mRNAs, 1 μL reactions were prepared using 8 μg nuclear extracts prepared from HeLa S3, 2 ng pre-mRNA, 0.2 ng FTZΔi, and varying concentrations of compounds or DMSO. After a 15 min pre-incubation at 30° C., 1 μL splicing activation buffer (0.5 mM ATP, 20 mM creatine phosphate, 1.6 mM MgCl2) was added, and the reactions were incubated for 90 min at 30° C. The reactions were then quenched with 13 μL DMSO, and 25 nL was used for RT-qPCR. […]

The subject of a further data set is Ad2.2 pre-mRNA. The data set can be described thus: In vitro splicing (IVS) RT-qPCR, HeLa nuclear extract, Ad2.2. The data set is classed as biochemical. On the procedure:
as §1, §2
IVS: All Ad2-derived sequences (Pellizzoni et al. (1998) Cell 95(5):615-24) were cloned into pcDNA3.1(+) vector (Promega) using 5′ EcoRI and 3′ Xbal restriction sites. The plasmids were linearized using Xbal and used as DNA templates in in vitro transcription reactions. The FtzΔi intron-less plasmid (Luo and Reed (1999) 96(26):14937-42) was linearized using EcoRI. All RNAs were in vitro transcribed and then purified using MEGAScript T7 (Invitrogen) and MegaClear (Invitrogen) kits, respectively. For splicing reactions using Ad2 variant pre-mRNAs, 1 μL reactions were prepared using 8 μg nuclear extracts prepared from HeLa S3, 2 ng pre-mRNA, 0.2 ng FTZΔi, and varying concentrations of compounds or DMSO. After a 15 min pre-incubation at 30° C., 1 μL splicing activation buffer (0.5 mM ATP, 20 mM creatine phosphate, 1.6 mM MgCl2) was added, and the reactions were incubated for 90 min at 30° C. The reactions were then quenched with 13 μL DMSO, and 25 nL was used for RT-qPCR. RT-qPCR reactions were prepared using TaqMan RNA-to-CT 1-step kit (Life Technologies), RNA from splicing reactions, Ad2 (forward: […]; reverse: […]; probe: […]) and Ftz (forward: […]; reverse: […]; probe: […]) mRNA primer-probe sets. Prism 7 (Graphpad) was used for non-linear regression curve fitting of the formed spliced product and normalized to the control (DMSO) sample. […] In the presence of payload, a decrease in the amount of spliced product was observed.
(Real-time PCR tracks product formation cycle by cycle.)

Another data set has as its system NCIH1568.1. The data set can be described thus: Payload cellular potency CTGlo-ATS 72 h, NCIH1568.1. It is filed as cell-based. To be noted: cell line #2, 72 h, corresponding free payload.
A further data set relates to NCIH1650.1. The data set can be described thus: Payload cellular potency CTGlo-ATS 72 h, NCIH1650.1. The data set is classed as cell-based. To be noted: cell line #1, 72 h, corresponding free payload.
The test system of a further data set is THP1.1. The data set can be described thus: Payload cell potency and lethality CTGlo 72 h, THP1.1. The data set is classed as cell-based. As to conditions: cell line #3, 72 h, corresponding free payload.
The nature of data set [1]: Caco-2 permeability of ADC payload. To be noted: human, corresponding free payload. The data set is classed as in vitro ADME.
Description: (§3) Integrity of cell monolayer was confirmed by TEER (transepithelial electrical resistance) and Lucifer yellow. Payloads were spiked in duplicate at 10 NM, separately, on both sides of the cell monolayer. Permeability rates from the apical to basolateral (A-B) direction and the basolateral to apical (B-A) direction were determined by sampling aliquots from both chambers immediately after treatment (t=0) and following incubation for 2 hours. Samples were protein precipitated with organic solvent containing internal standard and analyzed by LC-MS/MS (SCIEX; API 5500). The area ratio responses of payload/internal standard over time in both directions were used to generate permeability (cm/sec) values.
The next data set deals with Caco-2 cells. The data set is described as follows: Caco-2 permeability of ADC payload. It is filed as in vitro ADME. To be noted: unconjugated payload; apical to basolateral, 2 hours.

Description for Caco-2 cells: as §3

In the case of `CC[C@H](O)[C@@H](C)[C@H]1O[C@@H]1C[C@@](C)(O)/C=C/C=C(\C)[C@H]1OC(=O)C[C@H](O)CC[C@@](C)(O)[C@@H](OC(=O)N2CCNCC2)/C=C/[C@@H]1C` [D12, (2S,3S,6S,7R,10R,E)-7,10-dihydroxy-2-((R,2E,4E)-6-hydroxy-7-((2R,3R)-3-((2R,3S)-3-hydroxypentan-2-yl)oxiran-2-yl)-6-methylhepta-2,4-dien-2-yl)-3,7-dimethyl-12-oxooxacyclododec-4-en-6-yl piperazine-1-carboxylate], the IC50 – broadly, the concentration at which inhibition is half-maximal – in the data set with Ad2.1 pre-mRNA (biochemical splicing assay, corresponding free payload, read-out: qPCR-IVS-ATS GMean IC50 (nM) Ad2.1 HELA.2) came to 16.5 nM; with Ad2.2 pre-mRNA (biochemical splicing assay, corresponding free payload, read-out: qPCR-IVS-ATS GMean IC50 (nM) Ad2.2 HELA.2), 25.1 nM. Also, the “Ratio Ad2.1/2.2” value in the data set with Ad2.1 pre-mRNA (ratio of IVS IC50 Ad2.1/Ad2.2, corresponding free payload) came out at 0.659. Also, the “CTGlo-ATS GMean LD50 (nM) 72 h NCIH1568.1” value in the data set on NCIH1568.1 was determined as 1193.037 nM. Besides, the figures for the GI50 in the data set with NCIH1568.1 (read-out: CTGlo-ATS GMean GI50 (nM) 72 h NCIH1568.1), in the data set on NCIH1650.1 (read-out: CTGlo-ATS GMean GI50 (nM) 72 h NCIH1650.1) and with THP1.1 (read-out: CTGlo-ATS GMean GI50 (nM) 72 h THP1.1) were 164 nM, 258 nM and 202 nM, respectively. Besides, in the data set with NCIH1650.1, the “CTGlo-ATS GMean LD50 (nM) 72 h NCIH1650.1” value is reported as over 10000.00 nM. The “CTGlo-ATS GMean LD50 (nM) 72 h THP1.1” value in the data set with THP1.1 amounted to 900.227 nM. Moreover, the Papp A→B at 2 h, 10 NM in data set [1] (Caco-2, A-B, read-out: Perm. Mean Caco 2 A-B Perm (10e−6 cm/s)) was determined as 0.17 ×10⁻⁶ cm/s. Moreover, the Papp B→A at 2 h, 10 NM in data set [1] (Caco-2, B-A, read-out: Perm. Mean Caco 2 B-A Perm (10e−6 cm/s)) was 0.23 ×10⁻⁶ cm/s. The efflux ratio at 2 h, 10 NM in data set [1] (Caco-2 efflux ratio, read-out: ER) is 1.35.

Take `COc1cc2cc(c1Cl)N(C)C(=O)C[C@H](OC(=O)[C@H](C)N(C)C(=O)CCS)[C@]1(C)O[C@H]1[C@H](C)[C@@H]1C[C@@](O)(NC(=O)O1)[C@H](OC)/C=C/C=C(\C)C2` [DM1, reference compound]: the half-inhibitory concentration (IC50) with Ad2.1 pre-mRNA (unconjugated payload, HeLa nuclear extract, read-out: qPCR-IVS-AT S Gmean IC50 (nm) Ad2.1 HELA.2) was over 25000 nM; in the data set on Ad2.2 pre-mRNA (unconjugated payload, HeLa nuclear extract, read-out: qPCR-IVS-AT S GMean IC50 (nM) Ad2.2 HELA.2) it was under 25000 nM. Besides, the “Permeability Mean Caco-2 A-B Perm (10e−6 cm/s)” value with Caco-2 cells is 0.38 10e−6 cm/s.
